Measured values taken from patent US11241385B2, “Topical composition and method for treating and preventing atopic dermatitis and infections related to bacteria biofilm” (Johnson & Johnson Consumer Inc., priority 2017, dated 2022).

Tests used:
[1] = test system: Staphylococcus Epidermidis biofilms; assay: Biofilm growth inhibition, wells method (inhibition halos); format: cell-based; details: S. Epidermidis
Method: (§1) 1.3.3 Biofilm Growth Inhibition, Wells Method.
(§2) Protocol disclosed by Hui Zhang was adapted as follow: • a—100 μL of a bacterial strains culture (DO580=0.5) is spread on a LB culture plate. • b—5 mm diameter wells are created with a punch in the gel surface of the culture plate. Each well is attributed to one formulation, the same formulation throughout the test. • c—50 μL of tested formulation is injected per well. • d—24 hours incubation at 37° C. • e—Wells are emptied from the formulations. • f—Growth inhibition halos are measured. • g—Repeat from step c to obtain data over several days (8 days in the present case).
(§3) Tests were conducted on biofilms according to the methodology disclosed on paragraph 1.3.3 (Wells). A 10% solution of Triton X-100 (Aldrich) was submitted to the same test, results after 2 days were used as references.
(§4) Inhibition halos were measured and compared to the inhibition halo obtained for the Triton X-100 solution after 2 days. Inhibition halo differences are expressed in %. Over 100% the inhibition is higher than what is observed for Triton at 2 days; under 100% the inhibition is lower than what is observed for Triton at 2 days. Inhibition was measured at 2 days and 8 days.

[2] = test system: Staphylococcus aureus biofilms; assay: as above; format: cell-based; details: S. Aureus
Method: as §1, §2, §3, §4

[3] = test system: Staphylococcus aureus biofilms; assay: Biofilm growth, crystal violet method; format: cell-based, Staphylococcus Aureus MFP03; details: S. aureus, absorbance 550 nm
Method: 1.3.2 Biofilm Growth, Crystal Violet Method
Experiments on biofilm growth were performed according to the protocol disclosed in G. A. O'Toole, Microtiter Dish Biofilm Formation Assay, J Vis Exp. 2011; (47): 2437. The protocol disclosed by G. A. O'Toole teaches the assay on Pseudomonas aeruginosa, it was adapted to Staphylococcus Aureus MFP03 and Staphylococcus Epidermis MFP04.
Two conditions were studied: • The effect of the emulsions on biofilms in formation: the emulsions are added to the medium from the beginning of the bacterial growth. • The effect of emulsions on established biofilms: the emulsions are added to the bacteria after a first 24-hour incubation that allowed the development of the biofilm.
The protocol taught by G. A. O'Toole is as follows:
1. Grow a culture of the wild-type Pseudomonas aeruginosa or mutant strain overnight in a rich medium (i.e. LB)
2. […] For quantitative assays, we typically use 4-8 replicate wells for each treatment. […] Quantifying the Biofilm 1. […] Quantify absorbance in a plate reader at 550 nm using 30% acetic acid in water as the blank. For the conditions of biofilms in formation: emulsions at 10% (w/w) are added to the medium, and after 24 h of incubation, the optical density is measured. […] Optical density is then measured. Results are expressed in percentage of absorbance relative to the control sample, which is the biofilm itself. […]

Triton X-100
Growth inhibition % (halo), relative to Triton X-100 at 2 days ([1]; 2 days): 100% | Growth inhibition % (halo), relative to Triton X-100 at 2 days ([1]; 8 days): 231% | Growth inhibition % (halo), relative to Triton X-100 at 2 days ([2]; 2 days): 100% | Growth inhibition % (halo), relative to Triton X-100 at 2 days ([2]; 8 days): 198.5% | Absorbance percentage relative to the control (the biofilm itself), established biofilm ([3]; after 24 h biofilm growth medium replaced for 4 hours by emulsion): 177% | Absorbance percentage relative to the control (the biofilm itself), biofilm in formation ([3]; emulsion at 10% (w/w) in medium from start, 24 h incubation): 27%
